# How the values were obtained:
# [1] = Molar absorptivities at 280 nm and 493 nm; assay type: physicochemical
# Description: UV-vis absorption profiles were obtained for compound 7-functionalized antibodies, unfunctionalized antibodies, and free compound 7. FIG. 47 provides the results of these analyses. Molar absorptivities (8) were determined for the anti-BCMA antibody at 280 nm (primarily corresponding tyrosine and tryptophan absorbances from the anti-BCMA antibody) and at 493 nm for maleimide fluorescein and 5 (6)-carboxy fluorescein (primarily corresponding to the HOMO to LUMO transition within the fluorescein x-system), and are summarized in Table 18. As the unfunctionalized antibody minimally absorbed around 493 nm, absorbance in this region is quantitative for fluorescein concentration.
# [2] = test system: engineered cytokine receptor switches (fluorescein-binding receptor domains, IL-7 receptor-a intracellular signaling domains); test: T-cell activation, transduction, expansion and differentiation; memory phenotype quantification; assay type: cell-based; conditions: after 5 days in multi-well plates; non-fluorescein contacted cells about 30%
# Excerpt: This example covers activation, differentiation, and expansion of immune cells with engineered cytokine receptor switches. The engineered cytokine receptor switches included fluorescein-binding receptor domains and IL-7 receptor-a intracellular signaling domains. The cells were activated with CD3 and CD28 antibody-coated beads, followed by small molecule activators for the engineered cytokine switches to promote differentiation to memory phenotypes. The proportion of stem-cell memory, central memory, and effector memory cells were measured following differentiation.
# Activation, transfection, expansion, and differentiation were performed according to the timeline in FIG. 28A. The cells were maintained in media with 20 units/ml IL2 throughout the incubation. The cells were first contacted with CD3/CD28 activating beads at a ratio of 1:1 (cells to beads). Following three days of activation and expansion, the cells were transfected with a gamma retroviral vector encoding the engineered cytokine receptor switch with fluorescein binding affinity and mCherry for fluorescence detection. The cells were then transferred to a multi-well plate. […]
# Following 5 total days of incubation in the multi-well plates, the cells were analyzed for (1) stem-cell memory, (2) central memory, (3) effector memory, and (4) terminally differentiated effector memory re-expressing CD45RA phenotype. […]
SMILES,ε280 nm ([1]; molar absorptivity at 280 nm),ε493nm ([1]; molar absorptivity at 493 nm),proportion of central memory cells [2]
O=C1OC2(c3ccc(O)cc3Oc3cc(O)ccc32)c2ccc(N3C(=O)C=CC3=O)cc21 [Fluorescein-Maleimide],7968 M⁻¹ cm⁻¹,43908 M⁻¹ cm⁻¹,–
O=C1OC2(c3ccc(O)cc3Oc3cc(O)ccc32)c2ccccc21 [fluorescein],–,–,about 50%

# Source: US20250297220A1, “IMMUNE-ACTIVATING COMPLEXES” (Dynamic Cell Therapies, Inc., priority 2022, published 2025)
